{"source": "patent US10654918B2", "about": "“Inflammatory disease diagnosis and methods of treatment using down-regulators of lipopolysaccharide-responsive beige-like anchor” (University of South Florida, priority 2013, dated 2020)", "key": {"[1]": {"test_system": "CVID receptors, B220 and TLR4", "test": "LPS regulates CVID receptors, B220 and TLR4 in vivo (cytometry of spleen and bone marrow cells)", "set-up": "species or system C57BL/6J mice", "conditions": "for B220 Median Intensity fold / B220 Percentage fold / BAFFR Median Intensity fold / BAFFR Percentage fold / CD19 Median Intensity fold / CD19 Percentage fold / CD21 Median Intensity fold / CD21 Percentage fold / TACI Median Intensity fold / TACI Percentage fold / TLR4 Median Intensity fold / TLR4 Percentage fold: PBS vs LPS", "method": "(§1) FIG. 34(A)-(B) are graphs showing LPS regulates BAFFR in vivo and in vitro. C57BL/6J mice of 2-month age were injected intraperitoneally with LPS (5 μg/g body weight) or PBS (control). For in vitro LPS stimulation, cells from mouse spleen or bone marrow were cultured with or without LPS (1 μg/ml) for 24 hr. Cells were stained with fluorophores-conjugated BAFFR and TACI antibodies and DAPI for dead/live discrimination and analyzed with cytometry. (A) Spleocytes without LPS-P3, (B) bone marrow cells without LPS-P3. Negative gating was based on B220 negative cells, which are negative for BAFFR and TACI. Numbers other than percentage are arbitrary MFI units. All experiments were done in triplicate for in the vitro experiment and data shown is representative of two separate experiments.\n(§2) To investigate whether CVID genes also respond to LPS, mice were injected intraperitoneally with LPS. Twenty-four hours later the spleen and bone marrow cells were harvested and subjected to cytometry assay."}, "[2]": {"test_system": "RAW264.7 macrophage cells", "test": "Time-lapse video of LRBA-associated vesicle movement after LPS", "assay_type": "cell-based, mouse", "method": "FIGS. 14(A) and (B) are graphs showing LPS stimulates LRBA-positive vesicles movements. RAW264.7 macrophage cells stably transfected with pBWEGFP were cultured in a glass bottom dish and put into the culture chamber. LPS was added at final concentration of 100 ng/ml. The time-lapse video of four living cells was taken at one picture per second using the Leica TCS SP2 laser scanning inverted confocal microscope with a mini cell culture chamber at 37° C. and 5% CO2. (A) Average speed of LRBA-associated vesicles; (B) Average maximum speed of LRBA-associated vesicles; The two tails and unpaired T test p values: ***p<0.001; *p<0.0138 (A); ***p<0.0005; *p<0.0117 (B).\nTime lapse video was taken for living macrophage cells. RAW264.7 macrophage cells stably transfected with pBWEGFP were cultured in a glass bottom dish and put into the mini cell culture chamber at 37° C. and 5% CO2 in a Leica TCS SP2 laser scanning inverted confocal microscope. LPS was added at final concentration of 100 ng/ml. The time-lapse video of four living cells was taken at one picture per second using the Avg. timelapse interval: 1000.05 ms (1.0 Hz) (+/−8.9 ms); Initial SAC Position: 1700; Objective: 100× (magnification: 100.00×); Mag. changer: EMCCD (magnification: 1.00×); 8 inning: 1×1; Channel 1: c488em at 50 ms. Gain: 3 Intensification: 700 ND: 60 [Independent]. […]"}, "[3]": {"test_system": "LRBA", "test": "Plasma LRBA levels (ELISA) in mice stimulated with LPS", "assay_type": "in vivo", "method": "(A) Mice stimulated with LPS (1 μg/g body weight) for 6 hours. (B) OVA induced asthma mouse model.\n(§3) (C) Asthma patients with an exacerbation or controlled symptoms; (D) Human mononuclear leukocytes stimulated with LPS (1 μg/ml). LPS was derived from Escherichia coli 0111:B4 (Sigma, St. Louis, Mo.). LRBA levels were determined by LRBA ELISA Kit using 100 μl of plasma or conditioned media in each well, following the manufacturer's protocol.\n(§4) A) Mice stimulated with LPS (5 μg/g body weight) for 6 hours. (B) OVA induced asthma mouse model; (C) Asthma patients with an exacerbation or controlled symptoms; (D) Human mononuclear leukocytes stimulated with LPS (1 μg/ml). LRBA levels were determined by LRBA ELISA Kit using 100 μl of plasma or conditioned media in each well. C57BL/6J mice were injected intraperitoneally with 500 μl of 12 mg/kg (body weight) of LRBA antibody or control normal rabbit 1 gG suspended in saline three times. LPS at 7.5 mg/kg in 0.2 ml PBS i.p was followed. About 100 μl of blood was collected by submandibular venipuncture after 2 hours of LPS injection. Plasma samples were obtained by centrifugation at 3000 rpm for 15 min and used for cytokine assay. The TNFα and IL-6 concentrations were detected using the mouse CBA Th1/Th2/Th17 cytokine kit. The Phosflow Starter Kit contains Cytofix Fixation Buffer, Phosflow Perm Buffer III and Stain Buffer BSA."}, "[4]": {"test_system": "Human mononuclear leukocytes", "test": "LRBA levels in culture supernatants of mononuclear leukocytes stimulated with LPS", "assay_type": "cell-based", "conditions": "LPS 1 μg/ml", "method": "as §3, §4"}, "[5]": {"test_system": "splenocytes and bone marrow cells", "test": "Ex vivo culture of splenocytes and bone marrow cells with LPS", "assay_type": "cell-based, mouse", "conditions": "ex vivo cell culture, 24 h LPS stimulation (1 μg/ml)", "method": "as §1, §2"}, "[6]": {"conditions": "Bone Marrow, LPS 5 μg/g i.p., 24 h"}}, "data": [{"substance": "Lipopolysaccharide [LPS]", "values": [{"measurement": "B220 Median Intensity", "setting": "[1]; [6]", "value": "2423 ± 396.6 arbitrary fluorescence intensity units"}, {"measurement": "B220 Percentage", "setting": "[1]; [6]", "value": "15.5 ± 5.1", "unit": "%"}, {"measurement": "BAFFR Median Intensity", "setting": "[1]; [6]", "value": "693.3 ± 84.1 arbitrary fluorescence intensity units"}, {"measurement": "BAFFR Percentage", "setting": "[1]; [6]", "value": "43.7 ± 4.9", "unit": "%"}, {"measurement": "CD19 Median Intensity", "setting": "[1]; [6]", "value": "1951105 arbitrary fluorescence intensity units"}, {"measurement": "CD19 Percentage", "setting": "[1]; [6]", "value": "17.9 ± 5.5", "unit": "%"}, {"measurement": "CD21 Median Intensity", "setting": "[1]; [6]", "value": "378 ± 53.8 arbitrary fluorescence intensity units"}, {"measurement": "CD21 Percentage", "setting": "[1]; [6]", "value": "24.5 ± 1.23", "unit": "%"}, {"measurement": "TACI Percentage", "setting": "[1]; [6]", "value": "1.4 ± 0.35", "unit": "%"}, {"measurement": "TLR4 Median Intensity", "setting": "[1]; [6]", "value": "592 ± 28.8 arbitrary fluorescence intensity units"}, {"measurement": "TLR4 Percentage", "setting": "[1]; [6]", "value": "50.9 ± 3.3", "unit": "%"}, {"measurement": "B220 Median Intensity fold", "setting": "[1]; Bone Marrow", "value": "0.69↑"}, {"measurement": "B220 Percentage fold", "setting": "[1]; Bone Marrow", "value": 1.02}, {"measurement": "BAFFR Median Intensity fold", "setting": "[1]; Bone Marrow", "value": "1.58↓"}, {"measurement": "BAFFR Percentage fold", "setting": "[1]; Bone Marrow", "value": 0.81}, {"measurement": "CD19 Median Intensity fold", "setting": "[1]; Bone Marrow", "value": 0.94}, {"measurement": "CD19 Percentage fold", "setting": "[1]; Bone Marrow", "value": 0.83}, {"measurement": "CD21 Median Intensity fold", "setting": "[1]; Bone Marrow", "value": "2.02↓"}, {"measurement": "CD21 Percentage fold", "setting": "[1]; Bone Marrow", "value": 1.1}, {"measurement": "TACI Median Intensity fold", "setting": "[1]; Bone Marrow", "value": 1.03}, {"measurement": "TACI Percentage fold", "setting": "[1]; Bone Marrow", "value": 2.16}, {"measurement": "TLR4 Median Intensity fold", "setting": "[1]; Bone Marrow", "value": 0.97}, {"measurement": "TLR4 Percentage fold", "setting": "[1]; Bone Marrow", "value": "1.13↓"}, {"measurement": "B220 Median Intensity", "setting": "[1]; Spleen, LPS 5 μg/g i.p., 24 h", "value": "4031.3 ± 153.2 arbitrary fluorescence intensity units"}, {"measurement": "B220 Percentage", "setting": "[1]; Spleen, LPS 5 μg/g i.p., 24 h", "value": "58.7 ± 4.5", "unit": "%"}, {"measurement": "BAFFR Median Intensity", "setting": "[1]; Spleen, LPS 5 μg/g i.p., 24 h", "value": "842.7 ± 73.1 arbitrary fluorescence intensity units"}, {"measurement": "BAFFR Percentage", "setting": "[1]; Spleen, LPS 5 μg/g i.p., 24 h", "value": "94.7 ± 0.92", "unit": "%"}, {"measurement": "CD19 Median Intensity", "setting": "[1]; Spleen, LPS 5 μg/g i.p., 24 h", "value": "1792237 arbitrary fluorescence intensity units"}, {"measurement": "CD19 Percentage", "setting": "[1]; Spleen, LPS 5 μg/g i.p., 24 h", "value": "59 ± 4.1", "unit": "%"}, {"measurement": "CD21 Median Intensity", "setting": "[1]; Spleen, LPS 5 μg/g i.p., 24 h", "value": "580.71 ± 56.5 arbitrary fluorescence intensity units"}, {"measurement": "CD21 Percentage", "setting": "[1]; Spleen, LPS 5 μg/g i.p., 24 h", "value": "80.9 ± 9.7", "unit": "%"}, {"measurement": "TACI Median Intensity", "setting": "[1]; Spleen, LPS 5 μg/g i.p., 24 h", "value": "560.7 ± 60.1 arbitrary fluorescence intensity units"}, {"measurement": "TACI Percentage", "setting": "[1]; Spleen, LPS 5 μg/g i.p., 24 h", "value": "7.9 ± 2.70", "unit": "%"}, {"measurement": "TLR4 Median Intensity", "setting": "[1]; Spleen, LPS 5 μg/g i.p., 24 h", "value": "502.7 ± 3.1 arbitrary fluorescence intensity units"}, {"measurement": "TLR4 Percentage", "setting": "[1]; Spleen, LPS 5 μg/g i.p., 24 h", "value": "55.7 ± 4.0", "unit": "%"}, {"measurement": "B220 Median Intensity fold", "setting": "[1]; Spleen", "value": 1}, {"measurement": "B220 Percentage fold", "setting": "[1]; Spleen", "value": "0.8↑"}, {"measurement": "BAFFR Median Intensity fold", "setting": "[1]; Spleen", "value": "1.19↓"}, {"measurement": "BAFFR Percentage fold", "setting": "[1]; Spleen", "value": 0.98}, {"measurement": "CD19 Median Intensity fold", "setting": "[1]; Spleen", "value": 1.07}, {"measurement": "CD19 Percentage fold", "setting": "[1]; Spleen", "value": "0.8↑"}, {"measurement": "CD21 Median Intensity fold", "setting": "[1]; Spleen", "value": "1.45↓"}, {"measurement": "CD21 Percentage fold", "setting": "[1]; Spleen", "value": 1.1}, {"measurement": "TACI Median Intensity fold", "setting": "[1]; Spleen", "value": 1.1}, {"measurement": "TACI Percentage fold", "setting": "[1]; Spleen", "value": "0.35↑"}, {"measurement": "TLR4 Median Intensity fold", "setting": "[1]; Spleen", "value": 1.02}, {"measurement": "TLR4 Percentage fold", "setting": "[1]; Spleen", "value": "1.16↓"}, {"measurement": "average speed of vesicles", "setting": "[2]; 3 min after adding LPS (100 ng/ml) into the media", "value": "doubles"}, {"measurement": "average speed of vesicles", "setting": "[2]; after 5 and 23 min of LPS (100 ng/ml)", "value": "slows down to original levels"}, {"measurement": "LRBA secreted into plasma upon LPS stimulation", "setting": "[3]; high levels, upper value", "value": "up to 6.7 μg/L"}, {"measurement": "LRBA levels in plasma", "setting": "[3]; mice stimulated with LPS for 6 hours", "value": "significantly increased"}, {"measurement": "LRBA levels in the culture supernatants", "setting": "[4]", "value": "significantly increased"}, {"measurement": "TACI on splenocytes and bone marrow cells", "setting": "[5]", "value": "significantly upregulated"}]}]}
